From patent US20170127677A1, “Formulation of clomazone having reduced volatility” (BASF SE, priority 2014, published 2017)

Assay: Volatility of clomazone from spray solution: glass tube at 25° C. with air suction, loss determined by GC
Format: physicochemical
Conditions: 24 h; for reduction of volatility of Clomazone by compound (B): Test experiment 5, clomazone WP 100 g/ha, component B 335 g/ha
Experimental: However, a preferred method for determining the volatility of the compounds contained in the compositions according to the present invention is carried out as follows: Glass tubes (internal diameter 23 mm) are immersed in a water bath at 25° C. In the bottom of each of the glass tubes 100 μl of spray solution (component A and B diluted in water at the concentration that a farmer would typically spray) are applied with a pipette. A tube is inserted in the glass tube. The ending of the inserted tube stays 25 mm above the bottom of the glass tube (i.e. the test sample). Along the inserted tube, the air contained in each individual glass tube is constantly suctioned at 250 L/h for the whole system. All glass tubes are separated from the lid by spacers which ensure the inlet of fresh air to the glass tubes. After short time the test sample is evaporated. The system is stopped according to a defined sampling period, preferably after 24 hours. The glass tubes are taken out and washed with THF. The washing solution is analyzed by GC for the compound of interest, e.g. clomazone. The loss of compound is calculated in % of the total amount of compound applied in the initial 100 μl sample. The reference test samples for the quantification of the initial applied Clomazone contain also THF. Each value is generated from 3 to 4 independent measurements. This method allows determining the relative volatility of a certain compound depending on the additional compounds present in a certain composition.
Non-encapsulated Clomazone (as WP formulation) was prepared at 100 g/ha with 200 L water/ha. Paraffinic oil, rapeseed oil methyl ester and the aromatic solvent were added at 335 g/ha, while Dimethenamid was added at 500 g/ha. For the solvents, an appropriate emulsifier system was added. The sample size was 100 μl. The volatility test was carried out at 25° C. and the operating time was 24 h.
Solvents typically used in crop protection agents were tested for comparative purposes. As comparison dimethenamid (dimethenamid P) was also tested, but differently from example 1, the test sample solution was prepared at 335 g/ha.CE3 was included again. Two controls were included in the experiment. For the solvents, an appropriate emulsifier system was added. The volatility test was carried out at 25° C., the operating time was 24 h. The sample size was 100 μl.
Various fatty acid amides were tested as additional components in herbicidal compositions with respect to the question if volatility of clomazone in such compositions is affected. For the solvents, an appropriate emulsifier system was added. The volatility test was carried out at 25° C. the operating time was 24 h. The sample size was 100 μl. […]

CCc1cccc(C)c1N(C(=O)CCl)C(C)COC (racemic) [Metolachlor, (RS)-2-ethyl-6-methyl-N-(1′-methyl-2′-methoxyethyl)-chloracetanilid]
reduction of volatility of Clomazone by compound (B): support the claimed reduction of volatility of Clomazone

COCC(C)N(C(=O)CCl)c1c(C)csc1C (stereo not shown) [Dimethenamid, R,S-2-Chloro-N-(2,4-dimethyl-3-thienyl)-N-(2-methoxy-1-methylethyl)acetamide]
effect on volatility of clomazone in the composition (Test experiment 1, clomazone WP 100 g/ha, dimethenamid 500 g/ha, solvents 335 g/ha): significantly reduces the volatility of clomazone
effect on volatility of clomazone in herbicidal compositions (Test experiment 2, clomazone 100 g/ha, dimethenamid or solvent 335 g/ha): significantly reduce the volatility of clomazone

CCC(CC)Nc1c([N+](=O)[O-])cc(C)c(C)c1[N+](=O)[O-] [Pendimethalin, N-(1-ethylpropyl)-3,4-dimethyl-2,6-dinitrophenylamine]
reduction of volatility of Clomazone by compound (B): support the claimed reduction of volatility of Clomazone
